Tests used:
Assay type in all cases: in vivo
[1] = system: wheat; assay: Wheat field treatment: yield and frost damage; conditions: for Frost Damage (percentage of barren husks): untreated 21; for Yield: untreated 3890
Protocol: (§1) Spray tank was filled with approximately two-thirds of the total volume of water required. The amount of Powder 1 or Powder 2 was weighed according to the rate and total volume of spray being prepared. The appropriate amount of was calculated to give 1% v/v of total spray volume. Adjuvant 1 was added to the spray tank, which was agitated until the mixture turned milky white. Powder 1 or Powder 2 was added to the spray container, which was then gently (not vigorously) agitated. The remaining water was added, making sure all of the powder was wet and washed off of the sides of the tank (if any had deposited there). The spray tank was then swirled or stirred for at least two minutes (2-5 minutes) to ensure good mixing. Between 5 and 60 minutes thereafter, plants were sprayed with the mixture.
(§2) Flat fan nozzles were used, producing droplet size of 100 to 500 micrometers. Spray rate of mixture was 500 liter per hectare. Backpack sprayer was used. Spraying was performed before 10:00 am.
(§3) Using methods similar to those of Example 1, wheat was sprayed at stage F10.5. Frost damage was assessed by examining the portion of the seed head damaged; the percentage of barren husks is reported. Damage from fusarium disease was assessed as a percentage of seed heads damaged by the disease organism.

[2] = system: Fuji apple trees; assay: Fuji apples: staining after harvest and storage; conditions: 250 ppm, approximately 211 g/ha (520 g/acre) each, Untreated 12
Source text: Fuji apple trees were sprayed prior to harvest either one or two times, with spray containing 250 ppm of 1-MCP. Each spraying provided treatment of approximately 211 g/ha ([…]). After harvesting and storage, the apples were inspected for staining.

[3] = system: fusarium disease; assay: Wheat field treatment: damage from fusarium disease; conditions: untreated 6
Protocol: as §1, §2, §3

[4] = system: Soybean plants; assay: Soybean crop yield and protein content; conditions: for Protein %: untreated 36.93/36.87; for Yield: untreated 3607.20/3687.67
Protocol: as §1, §2
Soybean plants were treated using methods similar to those of Example 1. Treatment was performed when the plants were at one or more of the following growth stages: R2, R3, and R5.5.

[5] = system: cotton; assay: Cotton field treatment: lint yield; conditions: UTC 228.0, Adjuvant 1 only 245.1
Protocol: as §1, §2
Using methods similar to those of Example 1, cotton was also tested. Each treated group of plants was treated either two or three times, as follows:
The crop yield was assessed as the weight of lint per hectare. Treatment types, treatment amounts (grams of AI per hectare), and results were as follows. Many of the treatments lead to improvements in the yield of lint.

[6] = system: Golden Delicious apple trees; assay: Golden Delicious fruit drop after pre-harvest spray; conditions: NAA 20 ppm, AVG 125 ppm, Powder 1 375 g AI/ha
Protocol: as §1, §2
Using methods similar to those of Example 1, Golden Delicious apple trees were sprayed one week before the apples would normally be harvested for commercial use. The apples were left on the trees to observe postharvest drop. The spray containing Powder 1 was used to give 375 gram of AI per hectare. NAA was used at 20 ppm, and AVG was used at 125 ppm. […]

[7] = 1 g/ha, timing R2, R3, and R5.5
[8] = 10 g/ha, timing R2, R3, and R5.5
[9] = 30 g/ha, timing R2, R3, and R5.5
[10] = dosage Exaggerated 1, every 2 weeks
[11] = dosage Exaggerated 2, every 2 weeks

`CC1=CC1` [1-MCP, 1-methylcyclopropene] was tested, and the “Frost Damage (percentage of barren husks)” value ([1]; 10 g/ha AI at stage F10.5) was 6%, the Yield ([1]; 10 g/ha AI at stage F10.5) was 4458 kg dry weight/ha and the “Frost Damage (percentage of barren husks)” value ([1]; 25 g/ha AI at stage F10.5) was 3%. For the same molecule, the Yield ([1]; 25 g/ha AI at stage F10.5) was 4522 kg dry weight/ha, the “% Staining” value ([2]; 1 spray application) was 8.5% and the “% Staining” value ([2]; 2 spray applications) was 3%. The “Disease Damage (percentage of seed heads damaged)” value ([3]; 10 g/ha AI at stage F10.5) was 0.5%, the “Disease Damage (percentage of seed heads damaged)” value ([3]; 25 g/ha AI at stage F10.5) was 3% and the Protein % [4, 7] was 38.4%. For the same molecule, the Yield [4, 7] was 3955.68 kg/ha, the Protein % ([4]; 1 g/ha, timing R2) was 37.88% and the Yield ([4]; 1 g/ha, timing R2) was 3691.44 kg/ha. For the same molecule, the Protein % ([4]; 1 g/ha, timing R2 and R3) was 37.85%, the Yield ([4]; 1 g/ha, timing R2 and R3) was 3786.48 kg/ha and the Protein % ([4]; 1 g/ha, timing R2 and R5.5) was 38.45%. The Yield ([4]; 1 g/ha, timing R2 and R5.5) was 3704.04 kg/ha, the Protein % ([4]; 1 g/ha, timing R3) was 37.89% and the Yield ([4]; 1 g/ha, timing R3) was 3795.48 kg/ha. The Protein % ([4]; 1 g/ha, timing R3 and R5.5) was 38.75%, the Yield ([4]; 1 g/ha, timing R3 and R5.5) was 3763.80 kg/ha and the Protein % ([4]; 1 g/ha, timing R5.5) was 38.25%. The Yield ([4]; 1 g/ha, timing R5.5) was 3659.76 kg/ha, the Protein % [4, 8] was 37.87% and the Yield [4, 8] was 4119.48 kg/ha. For the same molecule, the Protein % ([4]; 10 g/ha, timing R2) was 37.67%, the Yield ([4]; 10 g/ha, timing R2) was 3671.64 kg/ha and the Protein % ([4]; 10 g/ha, timing R2 and R3) was 38.27%. For the same molecule, the Yield ([4]; 10 g/ha, timing R2 and R3) was 3872.84 kg/ha, the Protein % ([4]; 10 g/ha, timing R2 and R5.5) was 38.63% and the Yield ([4]; 10 g/ha, timing R2 and R5.5) was 3817.80 kg/ha. For the same molecule, the Protein % ([4]; 10 g/ha, timing R3) was 38.64%, the Yield ([4]; 10 g/ha, timing R3) was 3757.68 kg/ha and the Protein % ([4]; 10 g/ha, timing R3 and R5.5) was 38.3%. The Yield ([4]; 10 g/ha, timing R3 and R5.5) was 3791.52 kg/ha, the Protein % ([4]; 10 g/ha, timing R5.5) was 38.32% and the Yield ([4]; 10 g/ha, timing R5.5) was 3721.32 kg/ha. For the same molecule, the Protein % [4, 9] was 37.48%, the Yield [4, 9] was 4347.00 kg/ha and the Protein % ([4]; 30 g/ha, timing R2) was 38.08%. The Yield ([4]; 30 g/ha, timing R2) was 3702.24 kg/ha, the Protein % ([4]; 30 g/ha, timing R2 and R3) was 36.73% and the Yield ([4]; 30 g/ha, timing R2 and R3) was 4118.76 kg/ha. It also gave a Protein % ([4]; 30 g/ha, timing R2 and R5.5) of 38.56%, a Yield ([4]; 30 g/ha, timing R2 and R5.5) of 3844.44 kg/ha and a Protein % ([4]; 30 g/ha, timing R3) of 38.33%. The Yield ([4]; 30 g/ha, timing R3) was 3747.24 kg/ha, the Protein % ([4]; 30 g/ha, timing R3 and R5.5) was 37.87% and the Yield ([4]; 30 g/ha, timing R3 and R5.5) was 3946.68 kg/ha. It also gave a Protein % ([4]; 30 g/ha, timing R5.5) of 37.58%, a Yield ([4]; 30 g/ha, timing R5.5) of 3817.80 kg/ha and a Protein % [4, 10] of 38.62%. For the same molecule, the Yield [4, 10] was 3923.64 kg/ha, the Protein % [4, 11] was 37.89% and the Yield [4, 11] was 4167.00 kg/ha. It also gave a Lint ([5]; 250 g/ha AI, type EB 2) of 245.3 kg/ha, a Lint ([5]; 250 g/ha AI, type EB 3) of 250.2 kg/ha and a Lint ([5]; 250 g/ha AI, type PHS 2) of 230.6 kg/ha. For the same molecule, the Lint ([5]; 250 g/ha AI, type PHS 3) was 231.8 kg/ha, the Lint ([5]; 500 g/ha AI, type EB 2) was 234.2 kg/ha and the Lint ([5]; 500 g/ha AI, type EB 3) was 261.3 kg/ha. For the same molecule, the Lint ([5]; 500 g/ha AI, type PHS 2) was 257.6 kg/ha, the Lint ([5]; 500 g/ha AI, type PHS 3) was 262.0 kg/ha and the Lint ([5]; 1250 g/ha AI, type EB 2) was 235.0 kg/ha. The Lint ([5]; 1250 g/ha AI, type EB 3) was 260.7 kg/ha, the Lint ([5]; 1250 g/ha AI, type PHS 2) was 253.9 kg/ha and the Lint ([5]; 1250 g/ha AI, type PHS 3) was 241.4 kg/ha.
`O=C(O)Cc1cccc2ccccc12` [NAA, 1-naphthaleneacetic acid] was tested, and the “number of dropped fruit per tree” value ([6]; day 0 after treatment, UTC 0) was 0, the “number of dropped fruit per tree” value ([6]; day 7 after treatment, UTC 18) was 5 and the “number of dropped fruit per tree” value ([6]; day 21 after treatment, UTC 45) was 20. For the same molecule, the “number of dropped fruit per tree” value ([6]; day 28 after treatment, UTC 115) was 65, the “number of dropped fruit per tree” value ([6]; day 35 after treatment, UTC 195) was 118 and the “number of dropped fruit per tree” value ([6]; day 62 after treatment, UTC 30) was 11.

From US9055741B2, “Contacting crop plants with compositions” (Rohm and Haas Company, priority 2006, dated 2015)
